Measured values: ChEMBL document CHEMBL5030524, “Discovery of Cyclic Peptidomimetic Ligands Targeting the Extracellular Domain of EGFR” (J Med Chem, 2021)
Calls of active or inactive are those of the source. The rule behind the calls is not given here.

How the values were obtained:
[1] = target: T1, Epidermal growth factor receptor (Homo sapiens, UniProt P00533); test: Binding affinity to EGFR (unknown origin) assessed as dissociation constant by fluorescence polarization assay
[2] = target: T1, Epidermal growth factor receptor; test: Inhibition of […] EGFR phosphorylation in human A549 cells pretreated for 4 hr followed by EGF stimulation by Western blot analysis; assay type: cell-based
[3] = system: A549; test: Antitumor activity against human A549 cells xenografted in athymic nude Ncr/nu mouse assessed as suppression of tumor growth at 50 mg/kg, ip administered once every 2 days for seven days; assay type: functional, organism-based; details: time 7.0 day
[4] = system: Mus musculus; test: In vivo inhibition of EGFR in athymic nude Ncr/nu mouse xenografted with human A549 cell assessed as reduction in phosphorylated EGFR expression at 50 mg/kg, ip administered every 2 days for 7 times measured after 6 days by immunohistochemical staining based analysis; assay type: functional, organism-based; details: time 6.0 day
[5] = target: T1, Epidermal growth factor receptor; test: Inhibition of EGFR in human A549 cells assessed as reduction in EGF-induced ERK phosphorylation measured after 4 hrs by Western blot analysis; assay type: cell-based
[6] = Stability of the compound assessed as pronase (unknown origin)-mediated drug degradation measured after 20 hrs by HPLC analysis; assay type: ADME; details: bacteria
[7] = Toxicity in athymic nude Ncr/nu mouse xenografted with human A549 cells assessed as effect on weight gain at 10 to 50 mg/kg, ip; assay type: organism-based; details: in vivo, 144 h, dose 10-50 mg/kg, time 6 day
[8] = Selectivity ratio of IC50 for HEK293 cells to IC50 for human A549 cells; assay type: toxicity; details: HEK293 cells versus A549 cells, read-out: Ratio IC50
[9] = target: T1, Epidermal growth factor receptor; test: Inhibition of EGFR in human A549 cells assessed as reduction in EGF-induced Akt phosphorylation measured after 4 hrs by Western blot analysis; assay type: cell-based
[10] = system: A549; test: Antiproliferative activity against human serum starved A549 cells assessed as reduction in cell viability at 10 uM after 48 hrs by CCK8 assay relative to control; assay type: functional
[11] = system: A549; test: Antimigratory activity against human A549 cells assessed as inhibition of cell migration at 25 uM measured after 30 hrs by scratch wound healing assay (reference value: 55.3 %); assay type: functional; set-up: scale not given: the % may be the effect or the level left
[12] = system: A549; test: Antimigratory activity against human A549 cells assessed as inhibition of cell migration at 25 uM in presence of EGF by scratch wound healing assay (reference value: 133.9 %); assay type: functional; set-up: scale not given: the % may be the effect or the level left
[13] = target: T1, Epidermal growth factor receptor; test: Inhibition of […] EGFR phosphorylation in human A549 cells at 25 uM pretreated for 4 hr followed by EGF stimulation by Western blot analysis relative to control; assay type: cell-based
[14] = system: A549; test: Antiproliferative activity against human serum starved A549 cells assessed as reduction in cell viability after 48 hrs in presence of EGF by CCK8 assay; assay type: functional, cell-based; details: A549, 48 h
[15] = system: Mus musculus; test: In vivo inhibition of EGFR in athymic nude Ncr/nu mouse xenografted with human A549 cell assessed as reduction in phosphorylated ERK expression at 50 mg/kg, ip administered every 2 days for 7 times measured after 6 days by immunohistochemical staining based analysis; assay type: functional, organism-based; details: time 6.0 day
[16] = system: HEK293; test: Cytotoxicity against HEK293 cells assessed as reduction in cell viability after 48 hrs by CCK8 assay; assay type: cell-based; details: Homo sapiens, HEK293, 48 h
[17] = system: A549; test: Antitumor activity against human A549 cells xenografted in athymic nude Ncr/nu mouse assessed as suppression of tumor growth at 10 mg/kg, ip administered once every 2 days for seven times and measured after 6 day; assay type: functional, organism-based
[18] = Oral bioavailability in human; assay type: ADME, organism-based; details: in vivo

T1 sequence (P00533 whole entry): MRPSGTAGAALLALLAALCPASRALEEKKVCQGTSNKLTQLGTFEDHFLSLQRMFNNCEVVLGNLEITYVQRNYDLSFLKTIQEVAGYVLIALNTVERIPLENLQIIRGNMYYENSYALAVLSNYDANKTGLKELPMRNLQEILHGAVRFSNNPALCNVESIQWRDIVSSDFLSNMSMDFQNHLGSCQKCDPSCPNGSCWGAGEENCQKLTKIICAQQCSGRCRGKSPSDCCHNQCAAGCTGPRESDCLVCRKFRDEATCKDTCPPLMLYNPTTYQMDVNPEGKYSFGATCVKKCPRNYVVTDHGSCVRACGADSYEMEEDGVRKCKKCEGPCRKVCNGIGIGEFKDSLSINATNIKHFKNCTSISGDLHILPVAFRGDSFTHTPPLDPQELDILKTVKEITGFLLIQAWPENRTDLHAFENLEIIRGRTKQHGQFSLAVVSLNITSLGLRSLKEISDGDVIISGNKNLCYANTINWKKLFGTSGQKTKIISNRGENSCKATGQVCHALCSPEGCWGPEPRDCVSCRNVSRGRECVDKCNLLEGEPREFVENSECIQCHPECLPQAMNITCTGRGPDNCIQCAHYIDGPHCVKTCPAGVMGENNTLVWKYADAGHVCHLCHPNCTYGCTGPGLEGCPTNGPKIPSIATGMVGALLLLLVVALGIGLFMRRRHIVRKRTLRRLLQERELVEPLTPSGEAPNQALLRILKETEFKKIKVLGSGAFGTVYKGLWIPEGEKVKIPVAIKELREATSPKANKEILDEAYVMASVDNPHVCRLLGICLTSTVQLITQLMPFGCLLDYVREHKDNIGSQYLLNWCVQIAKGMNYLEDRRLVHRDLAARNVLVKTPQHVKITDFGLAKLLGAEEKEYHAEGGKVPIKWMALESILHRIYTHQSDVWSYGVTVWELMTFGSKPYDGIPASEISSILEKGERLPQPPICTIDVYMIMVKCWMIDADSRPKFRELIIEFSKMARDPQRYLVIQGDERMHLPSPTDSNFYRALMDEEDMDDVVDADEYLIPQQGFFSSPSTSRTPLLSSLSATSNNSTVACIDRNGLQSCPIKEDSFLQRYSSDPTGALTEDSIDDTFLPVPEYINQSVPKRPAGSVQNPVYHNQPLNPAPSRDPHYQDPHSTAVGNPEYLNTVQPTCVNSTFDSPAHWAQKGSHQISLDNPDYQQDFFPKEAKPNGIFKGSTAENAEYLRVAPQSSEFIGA

IC50 [2] [µM] | inhibition [5] | Drug degradation [6] | inhibition [9] | inhibition [13] [%] | IC50 [14] [µM] | bioavailability [18] [%] | Structure (SMILES) | Kd [1] [µM] | Activity [3] | inhibition [4] | Activity [7] | selectivity ratio [8] | Activity [10] [%] | Activity [11] [%] | Activity [12] [%] | inhibition [15] | IC50 [16] [µM] | Activity [17]
 |  |  |  |  |  |  | CC(C)C[C@H]1CN(C(=O)Cc2ccc3c(c2)OCO3)CC(=O)N[C@@H](Cc2ccccc2)CN(C(=O)CCC2CCCCC2)CC(=O)N[C@@H](Cc2ccccc2)CN(C(=O)Cc2ccc3c(c2)OCO3)CC(=O)N[C@@H](CC(C)C)C(=O)N(CC(N)=O)C(=O)CCSCc2ccc(cc2)C(=O)N1 | 0.55 |  |  |  |  |  |  |  |  |  | 
17.7 | Dose-Dependent Effect | Stable | Dose-Dependent Effect | 100 | 8.36 |  | COc1cc(CC(=O)N2CC(=O)N[C@@H](Cc3ccccc3)C(=O)N(CC(N)=O)C(=O)CCSCc3ccc(cc3)C(=O)N[C@@H](CCCCN)CN(C(=O)CCC3CCCCC3)CC(=O)N[C@@H](Cc3ccccc3)CN(C(=O)CCc3ccccc3)CC(=O)N[C@@H](Cc3ccccc3)C2)cc(OC)c1 | 0.43 | Active | Active | Non-Toxic | 8 | 100 | 15.2 | 64.8 | inactive | 62.1 | inactive
 |  |  |  |  |  | > 90 | NC(=O)N1c2ccccc2C=Cc2ccccc21 [CARBAMAZEPINE] |  |  |  |  |  |  |  |  |  |  | 
